For this experiment, the target named is T1, VcINDY (Vibrio cholerae, UniProt Q9KNE0).
T1 construct: gene VC_A0025

What is called Km is the substrate concentration at which the rate is half of its maximum. Regarding `O=C(O)CCC(=O)O` [succinate], the Km turned out to be 220 µM.

The record behind these values is PMC5413979 (Nature Communications, 2017).
